Measured values from ChEMBL document CHEMBL1133772, “In vitro and in vivo evaluation of dihydropyrimidinone C-5 amides as potent and selective alpha(1A) receptor antagonists for the treatment of benign prostatic hyperplasia” (J Med Chem, 2000).

How the values were obtained:
Rattus norvegicus [1] = organism: Rattus norvegicus; assay: Duration of action with repeated challenges of A61603 agonist in rat; format: functional
[2] = molecular target: T1, Alpha-1A adrenergic receptor (Homo sapiens, UniProt P35348); assay: Evaluated for the ability to displace [125I]- HEAT from human cloned Alpha-1A adrenergic receptor stably expressed in CHO cells.; format: cell-based
T1 sequence (P35348 whole entry): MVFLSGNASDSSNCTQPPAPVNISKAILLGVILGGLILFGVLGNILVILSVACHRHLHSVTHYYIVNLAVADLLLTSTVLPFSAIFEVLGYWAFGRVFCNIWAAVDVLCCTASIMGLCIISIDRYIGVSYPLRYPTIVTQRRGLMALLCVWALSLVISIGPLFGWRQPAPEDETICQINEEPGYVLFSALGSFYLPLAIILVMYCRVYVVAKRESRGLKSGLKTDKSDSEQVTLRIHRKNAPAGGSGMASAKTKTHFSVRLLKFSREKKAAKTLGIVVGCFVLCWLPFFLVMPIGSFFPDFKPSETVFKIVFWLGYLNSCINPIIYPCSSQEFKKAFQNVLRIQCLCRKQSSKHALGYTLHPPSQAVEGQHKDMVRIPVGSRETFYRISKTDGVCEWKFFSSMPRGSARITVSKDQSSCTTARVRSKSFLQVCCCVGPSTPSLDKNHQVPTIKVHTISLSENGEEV

Rattus norvegicus [3] = organism: Rattus norvegicus; assay: Evaluated for the inhibition of A61603-induced prostate contraction in rat; format: functional, Prostate gland
[4] = molecular target: T2, Alpha-1D adrenergic receptor (Homo sapiens, UniProt P25100); assay: Evaluated for the ability to displace [125I]- HEAT from human cloned Alpha-1D adrenergic receptor stably expressed in HEK cells.; format: cell-based, HEK293
T2 sequence (P25100 whole entry): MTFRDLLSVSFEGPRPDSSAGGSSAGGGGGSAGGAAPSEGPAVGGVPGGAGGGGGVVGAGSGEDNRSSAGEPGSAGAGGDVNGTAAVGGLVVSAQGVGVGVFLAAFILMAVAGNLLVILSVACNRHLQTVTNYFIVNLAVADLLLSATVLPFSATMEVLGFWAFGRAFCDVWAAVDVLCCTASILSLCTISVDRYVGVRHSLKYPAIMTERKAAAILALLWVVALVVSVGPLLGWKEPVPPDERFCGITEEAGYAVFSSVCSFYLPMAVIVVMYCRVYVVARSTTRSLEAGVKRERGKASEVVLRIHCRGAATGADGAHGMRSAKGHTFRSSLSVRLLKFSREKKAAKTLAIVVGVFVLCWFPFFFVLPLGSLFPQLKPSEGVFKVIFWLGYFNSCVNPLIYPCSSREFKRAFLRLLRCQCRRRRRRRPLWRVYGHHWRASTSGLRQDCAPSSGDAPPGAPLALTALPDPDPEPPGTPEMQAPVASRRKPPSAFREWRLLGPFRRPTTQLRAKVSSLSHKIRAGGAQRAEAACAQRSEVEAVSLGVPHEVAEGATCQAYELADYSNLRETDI

[5] = molecular target: T3, Alpha-1B adrenergic receptor (Homo sapiens, UniProt P35368); assay: Evaluated for the ability to displace [125I]- HEAT from human cloned Alpha-1B adrenergic receptor stably expressed in LM cells.; format: cell-based
T3 sequence (P35368 whole entry): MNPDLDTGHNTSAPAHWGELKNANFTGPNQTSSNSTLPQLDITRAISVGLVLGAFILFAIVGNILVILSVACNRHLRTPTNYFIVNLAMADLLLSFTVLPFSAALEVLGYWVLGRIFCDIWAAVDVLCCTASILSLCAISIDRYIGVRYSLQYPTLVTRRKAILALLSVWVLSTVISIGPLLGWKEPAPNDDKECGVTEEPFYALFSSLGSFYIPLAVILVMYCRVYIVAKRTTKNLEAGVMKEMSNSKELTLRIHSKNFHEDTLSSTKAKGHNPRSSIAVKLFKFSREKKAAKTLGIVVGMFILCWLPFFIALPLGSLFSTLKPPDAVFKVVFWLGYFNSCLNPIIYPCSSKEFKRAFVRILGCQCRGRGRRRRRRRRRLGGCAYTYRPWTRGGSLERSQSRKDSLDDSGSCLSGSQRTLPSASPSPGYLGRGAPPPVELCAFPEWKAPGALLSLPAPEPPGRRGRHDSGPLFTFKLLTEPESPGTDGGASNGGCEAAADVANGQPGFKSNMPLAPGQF

Canis familiaris [6] = organism: Canis familiaris; assay: The compound was evaluated for the inhibition of phenylephrine-induced contraction in dog.; format: functional, Canis lupus familiaris
[7] = Bioavailability in rat; format: ADME, organism-based; settings: in vivo
[8] = t1/2 in rat; format: ADME, organism-based; settings: in vivo
Canis familiaris [9] = organism: Canis familiaris; assay: Dose effecting a 20 mmHg change in diastolic blood pressure in dog.; format: functional, Canis lupus familiaris, Artery
[10] = Plasma half-life from intravenous dose in dog.; format: ADME, organism-based, Canis lupus familiaris
[11] = Bioavailability in dog (dose 0.5 mg/kg i.v. and 1 mg/kg p.o.); format: ADME, organism-based, Canis lupus familiaris; settings: in vivo, po
Canis familiaris [12] = organism: Canis familiaris; assay: Compound was evaluated for the inhibition of phenylephrine-induced contraction in dog.; format: functional, Canis lupus familiaris
[13] = molecular target: T1, Alpha-1A adrenergic receptor; assay: Ability to displace [125I]- HEAT from human cloned Alpha-1A adrenergic receptor stably expressed in CHO cells.; format: cell-based
[14] = molecular target: T2, Alpha-1D adrenergic receptor; assay: Ability to displace [125I]- HEAT from human cloned Alpha-1D adrenergic receptor stably expressed in HEK cells.; format: cell-based, HEK293
[15] = The compound was evaluated for the bioavailability when dosed 0.5 mg/kg intravenously and 1 mg/kg perorally in dog.; format: ADME, organism-based, Canis lupus familiaris; settings: in vivo, po
[16] = The compound was evaluated for plasma half-life from intravenous dose in dog.; format: ADME, organism-based, Canis lupus familiaris
Rattus norvegicus [17] = organism: Rattus norvegicus; assay: Inhibition of A61603-induced contraction; n=4 and data for each concentration was averaged (SEM<10%) in rat.; format: functional
Rattus norvegicus [18] = organism: Rattus norvegicus; assay: Duration of action with repeated challenges of A61603 agonist, n=4, data from each time point was averaged (SEM<10%) in rat.; format: functional
Canis familiaris [19] = organism: Canis familiaris; assay: Dose effecting a 20 mmHg change in diastolic blood pressure (SEM<10%) in dog.; format: functional, Canis lupus familiaris, Artery
Canis familiaris [20] = organism: Canis familiaris; assay: Evaluated for the inhibition of phenylephrine-induced contraction (SEM<10%) in dog.; format: functional, Canis lupus familiaris
Rattus norvegicus [21] = organism: Rattus norvegicus; assay: Evaluated for the inhibition of A61603-induced contraction; n=4 and data for each concentration was averaged (SEM<10%) in rat.; format: functional

Ki [2] | Ki [4] | Ki [5] | bioavailability [7] | half-life [8] | Compound | Duration (Rattus norvegicus [1]) | AD50 (Rattus norvegicus [3]) | DBP-20 (Canis familiaris [9]) | AD50 (Canis familiaris [12]) | also measured
0.25 nM | 168 nM | 158 nM | 0% | 2.7 h | CC1=C(C(=O)NCCCN2CCC(c3ccccc3C#N)CC2)[C@@H](c2ccc(F)c(F)c2)NC(=O)N1 | <0.5 h | 3 µg/kg | >300 µg/kg | – | IUP AD50 (Canis familiaris [6]): 6 µg/kg
0.12 nM | 340 nM | 130 nM | 15% | 2.2 h | CC1=C(C(=O)NCCCN2CCC(c3ccc(F)cc3C#N)CC2)[C@@H](c2ccc(F)c(F)c2)NC(=O)N1C | 2.5 h | 7 µg/kg | >300 µg/kg | 10 µg/kg | half-life [10]: 2.13 h; bioavailability [11]: 27%
0.45 nM | 495 nM | 235 nM | 0% | 7 h | COCC1=C(C(=O)NCCCN2CCC(c3ccccn3)CC2)[C@@H](c2ccc(F)c(F)c2)NC(=O)N1 | 0.25 h | 12 µg/kg | – | – | half-life [10]: 5.58 h; bioavailability [11]: 48%
– | – | 40 nM | < 6% | 1.7 h | CC1=C(C(=O)NCCCN2CCC(c3ccc(F)cc3)CC2)[C@@H](c2ccc(F)c(F)c2)NC(=O)N1 | 0.5 h | 1.8 µg/kg | 143 µg/kg | 7 µg/kg | Ki [13]: 0.39 nM; Ki [14]: 240 nM
– | 260 nM | 41 nM | 26% | 6.47 h | COCC1=C(C(=O)NCCCN2CCC(c3ccc(F)cc3)CC2)[C@@H](c2ccc(F)c(F)c2)NC(=O)N1 | 1 h | 4.6 µg/kg | >300 µg/kg | 25 µg/kg | bioavailability [15]: 40%; Ki [13]: 0.24 nM; half-life [16]: 7.77 h
0.17 nM | 68 nM | 24 nM | 0% | 1 h | O=C1NC=C(C(=O)NCCCN2CCC(c3ccc(F)cc3)CC2)[C@@H](c2ccc(F)c(F)c2)N1 | 0.5 h | 2.2 µg/kg | >300 µg/kg | 21 µg/kg | –
– | – | – | – | – | CCOc1ccccc1OCCN[C@H](C)Cc1ccc(OC)c(S(N)(=O)=O)c1 [TAMSULOSIN] | – | – | – | – | AD50 (Rattus norvegicus [17]): 3 µg/kg; Duration (Rattus norvegicus [18]): 3.5 h
– | – | – | – | – | COc1cc2nc(N3CCN(C(=O)C4CCCO4)CC3)nc(N)c2cc1OC (stereo not drawn) [TERAZOSIN] | – | – | – | – | DBP-20 (Canis familiaris [19]): 74 µg/kg; IUP AD50 (Canis familiaris [20]): 97 µg/kg; AD50 (Rattus norvegicus [21]): 52 µg/kg
